Measurements published in US12473295B2, “Substituted straight chain spiro derivatives” (Janssen Pharmaceutica NV, priority 2019, dated 2025).
Structures can show the parent of a compound that is named as a salt. Where two headings read alike, the source gives them in different places.

Legend:
[1] = Metabolic stability in mouse liver microsomes; type: in vitro ADME; details: mouse liver microsomes 0.5 mg/mL, 1 μM test compound, pH 7.4; for microsomal CLint at 1 μM: read-out: Mouse LM Clint
Protocol: (§1) 4) Metabolic Stability in Human/Mouse Liver Microsomes
(§2) The objective of this study is to measure in vitro metabolic stability of test compound(s) in human and mouse liver microsomes and provide quantitative information on the rate of metabolic turnover (i.e. determination of the apparent intrinsic clearance of test).
(§3) Test items were prepared at a stock concentration of 10 mM in DMSO. For determination of metabolic turnover, a final working solution was prepared by adding 2 μL of 10 mM DMSO stock solution for test compound or positive control compounds to 198 μL of acetonitrile (100 μM final concentration).
(§4) Incubations were performed as follows: First, liver microsomes were thawed on ice and a master solution containing liver microsomes in 100 mM PBS (phosphate-buffered saline) at pH 7.4 is prepared. Next, the liver microsomes solution was added to the incubation plates and 10 mM NADPH (Nicotinamide-adenine dinucleotide phosphate) was added (MW: 833.4 g/mol; Roche Diagnostics GmbH, Germany. Dissolved in phosphate buffer (100 mmol/L, pH 7.4)). The mixture was mixed for 10 seconds and pre-warmed in the incubation plate at 37° C. for 10 minutes. The metabolic reaction was initiated with the addition of 5 μL of the 100 μM working solution for test compound or positive control compounds to incubation plate (final test item concentration=1 μM). The reaction final mixture should contain 1 mM NADPH, 0.5 mg/mL microsomes protein and 1 μM test compound or positive control compound in 100 mM PBS at pH 7.4. The percentage of organic solvent in incubation mixture is 1% with DMSO ≤0.02%.
(§5) The reaction was quenched by transferring 50 μL of the incubated mixture at selected time points into the quenching plate containing 200 μL of cold methanol. After sampling of all the timepoints the quenching plate was centrifuged at 4000 rpm for 40 minutes to precipitate protein. A total of 90 μL of the supernatant was transferred to an analysis plate and ultra-pure H2O water is added into each well for LC/MS/MS analysis. All incubations and analysis were performed in duplicate.
(§6) All calculations were carried out using Microsoft Excel. The slope value, k, was determined by linear regression of the natural logarithm of the remaining percentage of the parent drug vs. incubation time curve.
(§7) The in vitro half-life (in vitro tin) was determined from the slope value: in vitro t1/2=−(0.693/k)
(§8) Conversion of the in vitro tin (in min) into the in vitro intrinsic clearance (in vitro CLint, in μL/min/mg proteins) was done using the following equation: […]

[2] = system: KO-52 cells; assay: Proliferation assay (spheroid growth, 8 days), KO-52 control cell line; type: cell-based, human; details: read-out: spheroid assay_OneTime KO-52 IC50
Method in brief: (§9)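 IC50 values derive from day-8 spheroid confluence, normalized between DMSO-treated wells and the highest dose of a reference compound, fitted with a variable slope. Cells grew 8 days at 37° C under a compound concentration series in 0.3% DMSO.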

[3] = system: MOLM14 cells; assay: Proliferation assay (spheroid growth, 8 days), MOLM14; type: cell-based, human; details: MOLM14, 8 days, read-out: spheroid assay_OneTime MOLM14 IC50;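 also: spheroid size read as confluence by live-cell imaging, compounds added at a range of concentrations with 0.3% DMSO, DMSO-treated wells = 0%, highest reference dose = low control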
[4] = system: OCI-AML3 cells; assay: Proliferation assay (spheroid growth, 8 days), OCI-AML3; type: cell-based, human; details: OCI-AML3, 8 days
Method in brief: as §9

[5] = target: menin/MLL (terbium chelate-labeled menin, FITC-MBM1 peptide) (Homo sapiens (Human), UniProt O00255); assay: Menin/MLL homogenous time-resolved fluorescence (HTRF) assay; type: binding;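 also: IC50 from percent inhibition of HTRF signal, normalized between wells without competitor and wells with a saturating competitor that displaces FITC-MBM1 from His-tagged menin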
Sequence of menin/MLL (terbium chelate-labeled menin, FITC-MBM1 peptide) (O00255 other isoform, or with tags, fused parts or gaps): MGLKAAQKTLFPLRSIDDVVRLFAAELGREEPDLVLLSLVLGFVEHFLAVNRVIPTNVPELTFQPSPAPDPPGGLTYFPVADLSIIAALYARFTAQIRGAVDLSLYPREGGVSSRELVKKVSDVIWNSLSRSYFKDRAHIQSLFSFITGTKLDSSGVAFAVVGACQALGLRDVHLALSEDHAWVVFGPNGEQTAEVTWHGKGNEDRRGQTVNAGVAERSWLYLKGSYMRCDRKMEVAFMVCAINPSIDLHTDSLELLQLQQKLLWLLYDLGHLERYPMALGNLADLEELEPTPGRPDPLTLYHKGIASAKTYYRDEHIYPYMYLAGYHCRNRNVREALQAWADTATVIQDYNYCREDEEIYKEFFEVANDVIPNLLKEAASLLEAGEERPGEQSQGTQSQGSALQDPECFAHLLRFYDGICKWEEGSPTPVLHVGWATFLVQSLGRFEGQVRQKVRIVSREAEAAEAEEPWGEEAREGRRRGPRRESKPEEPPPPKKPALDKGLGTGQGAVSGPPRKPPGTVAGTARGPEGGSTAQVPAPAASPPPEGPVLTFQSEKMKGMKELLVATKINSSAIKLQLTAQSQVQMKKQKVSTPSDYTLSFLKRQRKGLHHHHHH

[6] = Metabolic stability in human liver microsomes; type: in vitro ADME; details: human liver microsomes 0.5 mg/mL, 1 μM test compound, pH 7.4; for microsomal CLint at 1 μM: read-out: Human LM Clint
Protocol: as §1, §2, §3, §4, §5, §6, §7, §8

[7] = system: MEIS1 mRNA; assay: MEIS1 mRNA expression assay (Quantigene Singleplex) in MOLM14 cells; type: cell-based, human; details: 48 hours incubation;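 also: MEIS1 transcript levels read by probe hybridization and normalized to RPL28 mRNA, with IC50 fitted to fold changes across a rising compound concentration series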
[8] = Mouse PK (in vivo T1/2 and oral bioavailability); details: fasted male CD-1 mice, formulating agent HP-β-CD; for half-life: single IV 0.5 or 1.0 mg/kg; for bioavailability: single PO 5 mg/kg
Protocol: 3) Mouse PK (In Vivo T1/2 and Oral Bioavailability)
In vivo pharmacokinetics (PK) were assessed in fasted male CD-1 mice (age 6-8 weeks) following a single intravenous (IV, 0.5 or 1.0 mg/kg administered at 2.5 ml/kg) or oral (PO, 5 mg/kg administered at 10 ml solution/kg) dose of test article formulated in a 20% (w:vol) HP-β-CD solution or in Pyrogen free water.
Plasma and/or whole blood samples were collected from the dorsal metatarsal vein at desired timepoints via serial capillary microsampling (approx. 0.03 mL) using EDTA as an anticoagulant. Concentrations of compound in the plasma and blood samples were analyzed using a qualified LC-MS/MS method. In silico analysis of main pharmacokinetic parameters was performed using WinNonlin (Phoenix™, version 6.1) or similar software. (Results see Table 4)

[9] = target: hERG potassium channel (Homo sapiens (Human), UniProt Q12809); assay: Effect on membrane potassium current IKr in hERG transfected CHO cells, Protocol 1 (QPatch); type: cell-based
Sequence of hERG potassium channel (Q12809 whole entry): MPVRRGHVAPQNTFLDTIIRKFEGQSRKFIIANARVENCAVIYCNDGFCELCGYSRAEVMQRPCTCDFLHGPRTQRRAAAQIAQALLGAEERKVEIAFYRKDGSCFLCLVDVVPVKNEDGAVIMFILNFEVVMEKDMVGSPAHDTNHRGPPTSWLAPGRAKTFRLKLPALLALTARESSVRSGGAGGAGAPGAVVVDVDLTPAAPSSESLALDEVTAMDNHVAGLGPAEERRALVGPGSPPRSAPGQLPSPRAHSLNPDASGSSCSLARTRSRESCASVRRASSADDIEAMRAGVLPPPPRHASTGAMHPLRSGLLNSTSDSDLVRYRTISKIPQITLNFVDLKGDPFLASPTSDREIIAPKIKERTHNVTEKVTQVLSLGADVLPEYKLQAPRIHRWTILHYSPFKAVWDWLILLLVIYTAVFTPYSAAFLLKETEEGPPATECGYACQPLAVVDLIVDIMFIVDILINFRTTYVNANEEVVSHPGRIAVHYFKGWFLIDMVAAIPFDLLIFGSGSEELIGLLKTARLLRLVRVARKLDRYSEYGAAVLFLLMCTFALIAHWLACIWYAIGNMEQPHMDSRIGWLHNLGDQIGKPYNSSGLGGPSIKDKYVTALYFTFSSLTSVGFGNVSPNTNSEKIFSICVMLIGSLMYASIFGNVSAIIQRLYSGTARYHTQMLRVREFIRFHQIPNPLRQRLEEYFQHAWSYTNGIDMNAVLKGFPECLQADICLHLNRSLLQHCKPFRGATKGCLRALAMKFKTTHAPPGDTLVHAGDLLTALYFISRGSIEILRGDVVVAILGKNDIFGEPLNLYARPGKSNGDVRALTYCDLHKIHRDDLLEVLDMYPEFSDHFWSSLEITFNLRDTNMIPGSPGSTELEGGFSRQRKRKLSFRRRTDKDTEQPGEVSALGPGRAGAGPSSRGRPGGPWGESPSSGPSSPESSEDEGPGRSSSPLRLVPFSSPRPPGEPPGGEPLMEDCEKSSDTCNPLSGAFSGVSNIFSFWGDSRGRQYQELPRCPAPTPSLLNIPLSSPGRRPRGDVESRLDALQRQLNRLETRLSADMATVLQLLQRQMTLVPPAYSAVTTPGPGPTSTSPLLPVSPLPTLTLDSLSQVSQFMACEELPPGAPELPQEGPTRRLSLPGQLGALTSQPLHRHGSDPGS
Protocol: 8) Effect on the Membrane Potassium Current IKr in hERG Transfected Cell Lines
• CHO Chinese hamster ovary cell line • DMSO Dimethylsulfoxide • hERG human ether-á-go-go-related gene • IKr rapidly activating delayed-rectifier K^+ current Methods
Experiments were performed using CHO cells stably expressing the hERG potassium channel. Cells were grown at 37° C. and 5% CO2 in culture flasks in Ham's F12 Medium supplemented with 10% heat-inactivated fetal calf serum, hygromycin B (100 μg/ml) and geneticin (100 μg/ml). For use in the automated patch-clamp system QPatch (Sophion) cells were harvested to obtain cell suspension of single cells.
Solutions: The bath solution contained (in mM) 145 NaCl, 4 KCl, 10 glucose, 10 HEPES ((4-(2-hydroxyethyl)-1-piperazineethanesulfonic acid), 2 CaCl2 and 1 MgCl2 (pH 7.4 with NaOH). The pipette solution contained (in mM) 120 KCl, 10 EGTA (Ethylene glycol-bis(2-aminoethylether)-N,N,N′,N′-tetraacetic acid), 10 HEPES, 5.374 CaCl2 and 1.75 MgCl2 (pH 7.2 with KOH).
Patch-clamp experiments were performed in the voltage-clamp mode and whole-cell currents were recorded with an automated patch-clamp assay utilizing the QPatch system (Sophion). Current signals were amplified and digitized, stored and analyzed by using the QPatch assay software.
The holding potential was −80 mV. The hERG current (K^+-selective outward current) was determined as the maximal tail current at −40 mV after a 2 second depolarization to +60 mV. Pulse cycling rate was 15 s. A short pulse (90 ms) to −40 mV served as a baseline step to calculate the tail current amplitude. After establishing whole-cell configuration and a stability period, the solvent control (0.3% DMSO) was applied for 5 minutes followed by the test substance by four increasing concentrations of 3×10^−7 M, 3×10^−6 M, 10^−5 M and 3×10^−5 M. Each concentration of the test substance was applied twice. The effect of each concentration was determined after 5 min as an average current of 3 sequential voltage pulses. To determine the extent of block the residual current was compared with vehicle pre-treatment.
Concentration/response relations were calculated by non-linear least-squares fits to the individual data points. The half-maximal inhibiting concentration (IC50) was calculated by the fitting routine.

[10] = HTRF-30 min incubation IC50, 30 min incubation

| Structure (SMILES) | microsomal CLint at 1 μM [1] [µL/min/mg] | IC50 ([3]; Homo sapiens, MOLM-14, […]) [nM] | IC50 [5, 10] [nM] | IC50 ([4]; Homo sapiens, OCI-AML-3, […]) [nM] | IC50 ([7]; Homo sapiens, MOLM-14, 48 h) [nM] | half-life [8] [h] | bioavailability [8] [%] | IC50 ([2]; Homo sapiens, […]) [nM] | IC50 [9] [nM] | also measured |
| --- | --- | --- | --- | --- | --- | --- | --- | --- | --- | --- |
| CCN(C(=O)c1cc(F)ccc1Oc1nncnc1N1CCC2(C1)CN([C@H](CCCNC(C)=O)C(C)C)C2)C(C)C [Compound 6, (R)-2-((5(2-(6-acetamido-2-methylhexan-3-yl)-2,6-diazaspiro[3.4]octan-6-yl)-1,2,4-triazin-6-yl)oxy)-N-ethyl-5-fluoro-N-isopropylbenzamide formate] | 28 | 480 | 0.61 | 1860 | 360 | – | – | > 15000 | – | microsomal CLint at 1 μM [6]: 35 µL/min/mg |
| CCN(C(=O)c1cc(F)ccc1Oc1nncnc1N1CCC2(C1)CN([C@H](CCCN[C@H](C)COC)C(C)C)C2)C(C)C.O=C(O)/C=C/C(=O)O [Compound 112] | – | – | – | – | – | 6.2 | 4 | – | – | – |
| CCN(C(=O)c1cc(F)ccc1Oc1nncnc1N1CCC2(C1)CN([C@H](CCO)C(C)C)C2)C(C)C (single isomer, unassigned) [Compound 214, (*R)—N-ethyl-5-fluoro-2-((5-(2-(1-hydroxy-4-methylpentan-3-yl)-2,6-diazaspiro[3.4]octan-6-yl)-1,2,4-triazin-6-yl)oxy)-N-isopropylbenzamide] | – | – | – | – | – | – | – | – | – | Mouse LM Clint [1]: 80 µL/min/mg; IC50 [2]: > 15000 nM; IC50 ([5]; read-out: HTRF-30 min incubation IC50, 30 min incubation): 0.49 nM; IC50 [3]: 120 nM; Human LM Clint [6]: 44 µL/min/mg; IC50 [4]: 380 nM; IC50 [7]: 140 nM |
| CCN(C(=O)c1cc(F)ccc1Oc1nncnc1N1CCC2(C1)CN([C@H](CCCNCCC(F)F)C(C)C)C2)C(C)C.O=C(O)/C=C/C(=O)O [Compound 114] | – | – | – | – | – | 9.5 | 8.7 | – | – | – |

Continued, in another order:

| microsomal CLint at 1 μM [1] [µL/min/mg] | IC50 ([3]; Homo sapiens, MOLM-14, […]) [nM] | IC50 [5, 10] [nM] | IC50 ([4]; Homo sapiens, OCI-AML-3, […]) [nM] | IC50 ([7]; Homo sapiens, MOLM-14, 48 h) [nM] | half-life [8] [h] | bioavailability [8] [%] | Structure (SMILES) | IC50 ([2]; Homo sapiens, […]) [nM] | IC50 [9] [nM] | also measured |
| --- | --- | --- | --- | --- | --- | --- | --- | --- | --- | --- |
| < 7.5 | 15 | – | – | – | – | – | CCN(C(=O)c1cc(F)ccc1Oc1nncnc1N1CCC2(C1)CN([C@H](CCCNCCOC)C(C)C)C2)C(C)C [Compound 397, (R)-N-ethyl-5-fluoro-N-isopropyl-2-((5-(2-(6-((2-methoxyethyl)amino)-2-methylhexan-3-yl)-2,6-diazaspiro[3.4]octan-6-yl)-1,2,4-triazin-6-yl)oxy)benzamide fumarate] | > 15000 | – | IC50 ([4]; fumarate): 27 nM |
| – | 16 | 0.11 | 110 | 33 | 11 | 9.7 | CC(C)[C@@H](CCCN(C)C)N1CC2(CCN(c3ncnnc3Oc3ccc(F)cc3C(=O)N(C(C)C)C(C)C)C2)C1 (single isomer, unassigned) [Compound 102, (*R)-2-((5(2-(6-(dimethylamino)-2-methylhexan-3-yl)-2,6-diazaspiro[3.4]octan-6-yl)-1,2,4-triazin-6-yl)oxy)-5-fluoro-N,N-diisopropylbenzamide fumarate] | > 15000 | – | – |
| – | 300 | 0.61 | 1440 | 240 | – | – | CCN(C(=O)c1cc(F)ccc1Oc1nncnc1N1CCC2(C1)CN([C@H](CCCNCC(F)(F)F)C(C)C)C2)C(C)C [Compound 17, (R)-N-ethyl-5-fluoro-N-isopropyl-2-((5-(2-(2-methyl-6-((2,2,2-trifluoroethyl)amino)hexan-3-yl)-2,6-diazaspiro[3.4]octan-6-yl)-1,2,4-triazin-6-yl)oxy)benzamide] | 6790 | 4100 | – |
| – | 19 | 0.4 | 74 | 19 | – | – | CCN(C(=O)c1cc(F)ccc1Oc1nncnc1N1CCC2(C1)CN([C@H](CCCN(C)C(=O)OC(C)OC(=O)C(C)C)C(C)C)C2)C(C)C (stereo partly drawn) [Compound 40, 1-((((R)-4-(6-(6-(2-(ethyl(isopropyl)carbamoyl)-4-fluorophenoxy)-1,2,4-triazin-5-yl)-2,6-diazaspiro[3.4]octan-2-yl)-5-methylhexyl)(methyl)carbamoyl)oxy)ethyl isobutyrate] | 9540 | 5000 | – |
| 55 | 16 | 0.23 | 55 | 41 | – | – | CCN(C(=O)c1cc(F)ccc1Oc1nncnc1N1CCC2(C1)CN([C@H](CCCN(C)C(COC)COC)C(C)C)C2)C(C)C [Compound 161, (R)-2-((5-(2-(6-((1,3-dimethoxypropan-2-yl)(methyl)amino)-2-methylhexan-3-yl)-2,6-diazaspiro[3.4]octan-6-yl)-1,2,4-triazin-6-yl)oxy)-N-ethyl-5-fluoro-N-isopropylbenzamide fumarate] | > 15000 | – | microsomal CLint at 1 μM [6]: 70 µL/min/mg |
| – | 10 | 0.05 | 69 | 8.5 | – | – | CCN(C(=O)c1cc(F)ccc1Oc1nncnc1N1CCC2(C1)CN([C@H](CCCNCCC(F)(F)F)C(C)C)C2)C(C)C [Compound 14, (R)-N-ethyl-5-fluoro-N-isopropyl-2-((5-(2-(2-methyl-6-((3,3,3-trifluoropropyl)amino)hexan-3-yl)-2,6-diazaspiro[3.4]octan-6-yl)-1,2,4-triazin-6-yl)oxy)benzamide] | 3100 | 20000 | – |
